Measurements as given in patent publication US8048825B2, “Haloalkylsulfonanilide derivatives or salt thereof, herbicide comprising the derivatives as active ingredient, and use of the herbicide” (Nihon Nohyaku Co., Ltd., priority 2006, dated 2011).

Legend:
Assay type in all cases: in vivo
Lindernia procumbens [1] = assay: Herbicidal efficacy on paddy field weeds of pre-emergence stage (Pre), Test Example 1; details: 1000 g/ha as active ingredient, examined after 21 days
Summary of the method: (§1)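 Pre-emergence paddy test: 1000 g/ha active ingredient, formulated and water-diluted, dropped onto 5 cm floodwater one day after sowing both weeds in clay loam. After 21 days in greenhouse, inhibition relative to untreated control rated on 0 (0%) to 5 (100%) scale.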

Scirpus juncoides [2] = assay: as above; details: 1000 g/ha as active ingredient, examined after 21 days
Summary of the method: as §1

Echinochloa crus-galli = assay: Herbicidal effect on paddy field weeds of post-emergence stage (Post), Test Example 2; details: one-leaf stage, 1000 g/ha as active ingredient, examined after 21 days
Summary of the method: (§2)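 Post-emergence paddy test: formulated compound added to 5 cm standing water at 1000 g/ha a.i. when weeds reached one-leaf stage in clay loam pots in greenhouse. Growth inhibition rated 21 days later versus untreated control on a 0 (0%) to 5 (100%) scale.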

Lindernia procumbens [3] = assay: as above; details: one-leaf stage, 1000 g/ha as active ingredient, examined after 21 days
Summary of the method: as §2

Scirpus juncoides [4] = assay: as above; details: one-leaf stage, 1000 g/ha as active ingredient, examined after 21 days
Summary of the method: as §2

Structure (SMILES)	Lindernia procumbens pre (herbicidal effect) (Lindernia procumbens [1])	Scirpus juncoides pre (herbicidal effect) (Scirpus juncoides [2])	Echinochloa crus-galli post (herbicidal effect) (Echinochloa crus-galli)	Lindernia procumbens post (herbicidal effect) (Lindernia procumbens [3])	Scirpus juncoides post (herbicidal effect) (Scirpus juncoides [4])
CCC1(C)CCN(Cc2ccccc2N(C(=O)OCC(C)C)S(=O)(=O)C(F)(F)F)C(=O)O1 (centres unmarked) [Compound 1-74]	4 (90%-99% herbicidal effect, phytotoxicity)	4 (90%-99% herbicidal effect, phytotoxicity)	4 (90%-99% herbicidal effect, phytotoxicity)	4 (90%-99% herbicidal effect, phytotoxicity)	4 (90%-99% herbicidal effect, phytotoxicity)
CC(C)COC(=O)N(c1ccccc1CN1CCC(C)(C2CC2)OC1=O)S(=O)(=O)C(F)(F)F (centres unmarked) [Compound 1-130]	4 (90%-99% herbicidal effect, phytotoxicity)	4 (90%-99% herbicidal effect, phytotoxicity)	4 (90%-99% herbicidal effect, phytotoxicity)	4 (90%-99% herbicidal effect, phytotoxicity)	4 (90%-99% herbicidal effect, phytotoxicity)
CCCOC(=O)N(c1ccccc1CN1CCCCOC1=O)S(=O)(=O)C(F)(F)F [2-4]	4 (90%-99% herbicidal effect, phytotoxicity)	4 (90%-99% herbicidal effect, phytotoxicity)	4 (90%-99% herbicidal effect, phytotoxicity)	4 (90%-99% herbicidal effect, phytotoxicity)	4 (90%-99% herbicidal effect, phytotoxicity)
CCC1(C)CCN(Cc2ccccc2NS(=O)(=O)C(F)(F)F)C(=O)O1 (centres unmarked) [Compound 1-69]	4 (90%-99% herbicidal effect, phytotoxicity)	4 (90%-99% herbicidal effect, phytotoxicity)	4 (90%-99% herbicidal effect, phytotoxicity)	4 (90%-99% herbicidal effect, phytotoxicity)	4 (90%-99% herbicidal effect, phytotoxicity)
CCOC(=O)N(c1ccccc1CN1CCC(C)(c2ccccc2C(F)(F)F)OC1=O)S(=O)(=O)C(F)(F)F (centres unmarked) [Compound 1-395]	5 (100% herbicidal effect, phytotoxicity)	5 (100% herbicidal effect, phytotoxicity)	4 (90%-99% herbicidal effect, phytotoxicity)	5 (100% herbicidal effect, phytotoxicity)	4 (90%-99% herbicidal effect, phytotoxicity)
COC(=O)N(c1ccccc1CN1CCC(C)(C(F)(F)F)OC1=O)S(=O)(=O)C(F)(F)F (centres unmarked) [Compound 1-81]	5 (100% herbicidal effect, phytotoxicity)	4 (90%-99% herbicidal effect, phytotoxicity)	4 (90%-99% herbicidal effect, phytotoxicity)	5 (100% herbicidal effect, phytotoxicity)	4 (90%-99% herbicidal effect, phytotoxicity)
CC1(C2(C)CCN(Cc3ccccc3NS(=O)(=O)C(F)(F)F)C(=O)O2)CC1 (centres unmarked) [Compound 1-371]	5 (100% herbicidal effect, phytotoxicity)	5 (100% herbicidal effect, phytotoxicity)	4 (90%-99% herbicidal effect, phytotoxicity)	5 (100% herbicidal effect, phytotoxicity)	4 (90%-99% herbicidal effect, phytotoxicity)
CCOC(=O)N(c1ccccc1CN1CCC(c2ccccc2C)OC1=O)S(=O)(=O)C(F)(F)F (centres unmarked) [Compound 1-285]	5 (100% herbicidal effect, phytotoxicity)	4 (90%-99% herbicidal effect, phytotoxicity)	4 (90%-99% herbicidal effect, phytotoxicity)	5 (100% herbicidal effect, phytotoxicity)	4 (90%-99% herbicidal effect, phytotoxicity)
CC(C)(C)COC(=O)N(c1ccccc1CN1CCC(C)(C2CCC2)OC1=O)S(=O)(=O)C(F)(F)F (centres unmarked) [Compound 1-388]	5 (100% herbicidal effect, phytotoxicity)	5 (100% herbicidal effect, phytotoxicity)	5 (100% herbicidal effect, phytotoxicity)	5 (100% herbicidal effect, phytotoxicity)	4 (90%-99% herbicidal effect, phytotoxicity)
CCCC1(CC)CCN(Cc2ccccc2N(C(=O)OCC(C)C)S(=O)(=O)C(F)(F)F)C(=O)O1 (racemic) [Compound 1-499]	5 (100% herbicidal effect, phytotoxicity)	5 (100% herbicidal effect, phytotoxicity)	4 (90%-99% herbicidal effect, phytotoxicity)	5 (100% herbicidal effect, phytotoxicity)	4 (90%-99% herbicidal effect, phytotoxicity)
CC(C)COC(=O)N(c1ccccc1CN1CCC(C)(C)OC1=S)S(=O)(=O)C(F)(F)F [Compound 1-63]	4 (90%-99% herbicidal effect, phytotoxicity)	4 (90%-99% herbicidal effect, phytotoxicity)	4 (90%-99% herbicidal effect, phytotoxicity)	4 (90%-99% herbicidal effect, phytotoxicity)	4 (90%-99% herbicidal effect, phytotoxicity)
CC(C)COC(=O)N(c1ccccc1CN1CC(C)(C)COC1=O)S(=O)(=O)C(F)(F)F [Compound 1-28]	4 (90%-99% herbicidal effect, phytotoxicity)	4 (90%-99% herbicidal effect, phytotoxicity)	4 (90%-99% herbicidal effect, phytotoxicity)	4 (90%-99% herbicidal effect, phytotoxicity)	4 (90%-99% herbicidal effect, phytotoxicity)
CCC1(CC)CCN(Cc2ccccc2N(C(=O)OCC(C)C)S(=O)(=O)C(F)(F)F)C(=O)O1 [Compound 1-107]	4 (90%-99% herbicidal effect, phytotoxicity)	4 (90%-99% herbicidal effect, phytotoxicity)	4 (90%-99% herbicidal effect, phytotoxicity)	4 (90%-99% herbicidal effect, phytotoxicity)	4 (90%-99% herbicidal effect, phytotoxicity)
CCOC(=O)N(c1ccccc1CN1CC(C)(C)COC1=O)S(=O)(=O)C(F)(F)F [Compound 1-25]	4 (90%-99% herbicidal effect, phytotoxicity)	4 (90%-99% herbicidal effect, phytotoxicity)	4 (90%-99% herbicidal effect, phytotoxicity)	4 (90%-99% herbicidal effect, phytotoxicity)	4 (90%-99% herbicidal effect, phytotoxicity)
CC(C)(C)C(=O)OCN(c1ccccc1CN1CCC(C)(C2CC2)OC1=O)S(=O)(=O)C(F)(F)F (centres unmarked) [Compound 1-136]	4 (90%-99% herbicidal effect, phytotoxicity)	4 (90%-99% herbicidal effect, phytotoxicity)	4 (90%-99% herbicidal effect, phytotoxicity)	4 (90%-99% herbicidal effect, phytotoxicity)	4 (90%-99% herbicidal effect, phytotoxicity)
CCCC1(CC)CCN(Cc2ccccc2NS(=O)(=O)C(F)(F)F)C(=O)O1 (racemic) [Compound 1-494]	5 (100% herbicidal effect, phytotoxicity)	5 (100% herbicidal effect, phytotoxicity)	4 (90%-99% herbicidal effect, phytotoxicity)	5 (100% herbicidal effect, phytotoxicity)	4 (90%-99% herbicidal effect, phytotoxicity)
CCOC(=O)N(c1ccccc1CN1CCC(C)(C2CCC2)OC1=O)S(=O)(=O)C(F)(F)F (centres unmarked) [Compound 1-384]	5 (100% herbicidal effect, phytotoxicity)	5 (100% herbicidal effect, phytotoxicity)	4 (90%-99% herbicidal effect, phytotoxicity)	5 (100% herbicidal effect, phytotoxicity)	4 (90%-99% herbicidal effect, phytotoxicity)
CCC1(C)CCN(Cc2ccccc2N(C(=O)OCC(C)(C)C)S(=O)(=O)C(F)(F)F)C(=O)O1 (centres unmarked) [Compound 1-75]	4 (90%-99% herbicidal effect, phytotoxicity)	4 (90%-99% herbicidal effect, phytotoxicity)	4 (90%-99% herbicidal effect, phytotoxicity)	4 (90%-99% herbicidal effect, phytotoxicity)	4 (90%-99% herbicidal effect, phytotoxicity)
CCOC(=O)N(c1ccccc1CN1CCC(c2c(Cl)cccc2Cl)OC1=O)S(=O)(=O)C(F)(F)F (centres unmarked) [Compound 1-274]	5 (100% herbicidal effect, phytotoxicity)	4 (90%-99% herbicidal effect, phytotoxicity)	4 (90%-99% herbicidal effect, phytotoxicity)	5 (100% herbicidal effect, phytotoxicity)	4 (90%-99% herbicidal effect, phytotoxicity)
